# Columns and labels:
# human CRFR1 = molecular target: T1, human CRFR1 (Homo sapiens, UniProt P34998); experiment: CRFR binding experiment (125I-sauvagine SPA, membrane fraction of CRFR1-expressing HEK293 cells); details: 125I-sauvagine displacement, read-out: CRF1 receptor binding affinity IC50
# T1 construct: The full-length CRFR1 gene was obtained from a human brain cDNA library (QuickClone™, Clontech) by PCR; expressed in transfected cells
# T1 sequence (P34998 24-415): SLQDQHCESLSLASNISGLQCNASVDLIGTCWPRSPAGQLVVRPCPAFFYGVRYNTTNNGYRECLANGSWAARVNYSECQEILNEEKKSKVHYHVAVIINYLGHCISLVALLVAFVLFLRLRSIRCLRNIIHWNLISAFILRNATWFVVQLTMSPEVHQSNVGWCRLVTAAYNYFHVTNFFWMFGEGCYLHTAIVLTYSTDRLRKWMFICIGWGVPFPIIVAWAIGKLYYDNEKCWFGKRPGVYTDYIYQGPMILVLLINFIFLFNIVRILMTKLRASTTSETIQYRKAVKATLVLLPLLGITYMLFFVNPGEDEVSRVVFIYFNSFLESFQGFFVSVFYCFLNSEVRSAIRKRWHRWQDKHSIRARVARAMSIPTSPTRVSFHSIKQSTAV
# Description: <CRFR Binding Experiment>
# (1) Preparation of CRFR-Expressing Cells
# Membrane fraction of the cell highly expressing human CRFR1 was used as the experimental material for a CRFR binding experiment. The CRFR expressing cells were prepared in the following manner. The full-length CRFR1 gene was obtained from a human brain cDNA library (QuickClone™, Clontech) by PCR. The obtained DNA fragments were inserted into cloning vectors and the base sequences were determined. cDNA having the correct base sequence was then relinked to an expression vector (pcDNA3.1™, Invitrogen). The CRFR1 expression vector was introduced into HEK293 cells, and the resistant cells which grew in cell medium containing G418 (1 mg/ml) were cloned by limiting dilution. From these cloned cells, the clones with high binding affinity between the membrane fraction and sauvagine per unit of protein in the binding experiment described below were selected out and used for the final experiment.
# (2) Preparation of Membrane Fraction
# The cloned cells obtained in (1) were collected and disrupted with an ultrasonic generator in sonicate buffer (D-PBS(−) 10 mM MgCl2, 2 mM EGTA). The suspension obtained from ultrasonic disruption was centrifuged (46,000×g, 10 minutes), and the precipitate was resuspended in sonicate buffer and the same procedure was repeated. The final precipitate was then suspended in binding buffer (D-PBS(−) 10 mM MgCl2, 2 mM EGTA, 1.5% BSA, 0.15 mM bacitracin, 1× protease inhibitor cocktail (COMPLETE™, Boehringer)), and used as the membrane fraction after adjusting the protein concentration to 1.6 mg/ml.
# The sauvagine binding experiment was conducted following the protocol of SPA™ (Amersham Pharmacia), using a 96-well plate. The experiment was conducted according to the SPA beads instruction manual. After allowing […] of the membrane fraction protein, 0.5 mg of SPA beads and […] of ^125I-sauvagine (Amersham Pharmacia) to stand at room temperature for 2 hours in the presence of the test compound, the mixture was centrifuged (1000×g, 5 minutes) and the radioactivity of each well was measured with a TopCount™ (Packard).
# (4) Calculation of Binding Affinity
# The radioactivity for non-radioactive sauvagine added in a 1000-fold excess was subtracted from each value as the non-specific binding, and the radioactivity of a sample without addition of the test substance (control) was defined as 100%, with each value represented as a percentage (% of control).
# [1] = tested on: CRF-dependent cAMP production in AtT-20 cells; experiment: cAMP production inhibition experiment using AtT-20 cells; type: cell-based; details: Mus musculus, AtT20, 30 nM CRF, intracellular cAMP by HTRF, read-out: Adenylate cyclase activity IC50
# From the text: <cAMP Production Inhibition Experiment Using AtT-20 Cells>
# The AtT-20 cells were of a mouse pituitary gland tumor-derived cell line which is known to respond to Corticotropin-Releasing Factor (CRF), leading to activation of the intracellular adenylate cyclase system, production of cyclic AMP (cAMP), and release of adenocorticotropic hormone (ACTH) (Biochem. Biophys. Res. Com. 106, 1364-1371, 1982). For the experiment, the cells (1×10^5) were suspended in D-MEM medium (0.1% FBS) and seeded in a 96-well plate, phosphodiesterase inhibitor (IBMX, Calbiochem) was added to a final concentration of 1 mM, and were cultured at 37° C. for 30 minutes. A dilution of the test compound was added, culturing was continued for 30 minutes at 37° C., and CRF (30 nM) was added and culturing was continued for 30 minutes at 37° C. The cells were collected by centrifugation (500×g, 5 minutes) and lysed with lysis buffer (0.2% dodecyltrimethylammonium bromide), and the intracellular cAMP production was quantified by the HTRF method. A cAMP kit HTRF (CIS Diagnostics Co., Ltd.) was used for the cAMP quantification.
# (2) Calculation of cAMP Production Inhibition
# The cAMP production of cells to which 30 nM CRF had been added was defined as 100% (control), and the value for each specimen was represented as a percentage (% of control).
SMILES,IC50 (human CRFR1) [nM],IC50 [1] [nM]
"CCc1nn2c(-c3ccc(Cl)cc3Cl)cccc2c1N(CCOC)CC(C)C [Example 27, N-[7-(2,4-Dichlorophenyl)-2-ethylpyrazolo[1,5-a]pyridin-3-yl]-N-isobutyl-N-(2-methoxyethyl)amine]",55,300
"CCCN(CCC)c1c(CC)nn2c(-c3ccc(OC)cc3Cl)cccc12 [Example 3, N-[7-(2-Chloro-4-methoxyphenyl)-2-ethylpyrazolo[1,5-a]pyridin-3-yl]-N,N-dipropylamine]",,130
"CCCN(CCOC)c1c(CC)nn2c(-c3ccc(Cl)cc3Cl)cccc12 [Example 25, N-[7-(2,4-Dichlorophenyl)-2-ethylpyrazolo[1,5-a]pyridin-3-yl]-N-(2-methoxyethyl)-N-propylamine]",210,550
"COCCN(CC(C)C)c1c(SC)nn2c(-c3c(C)cc(C)cc3OC)cccc12 [Example 108, N-Isobutyl-N-[7-(2-methoxy-4,6-dimethylphenyl)-2-(methylsulfanyl)pyrazolo[1,5-a]pyridin-3-yl]-N-(2-methoxyethyl)amine]",50,20
"CCCN(CCC)c1c(CC)nn2c(-c3ccc(OC)cc3OC)cccc12 [Example 6, N-[7-(2,4-Dimethoxyphenyl)-2-ethylpyrazolo[1,5-a]pyridin-3-yl]-N,N-dipropylamine]",160,200
"CCCN(CCC)c1c(SC)nn2c(-c3ccc(Cl)cc3Cl)cccc12 [Example 103, N-[7-(2,4-Dichlorophenyl)-2-methylthiopyrazolo[1,5-a]pyridin-3-yl]-N,N-dipropylamine]",90,400
